Measurements taken from patent publication US20230330125A1, “ORAL COMPOSITION COMPRISING S-ADENOSYL METHIONINE AND A PROBIOTIC AND ITS USE FOR TREATING AND/OR PREVENTING MOOD DISORDERS” (Montefarmaco OTC S.p.A., priority 2020, published 2023).

Key:
R0052 probiotic strain = assay: Microbiological test, CFU count in Petri dish with SAMe; type: cell-based, Lactobacillus helveticus; settings: SAMe marketed formulation 500 mg dose, vs probiotic strain only
Experimental: (§1) 1.2 MICROBIOLOGICAL TEST: within the bio-compatibility study a microbiological evaluation was carried out. R0052 and R0175 probiotic strains were cultured in a Petri dish, in the presence of the active (SAMe, marketed formulation) at a 500 mg dose (as above). A sample was also analyzed as a reference of probiotic strain only, so that it could be compared with the addition of the active on the result in Colony-Forming Units (CFU). […] This is easily justified by the simple analytical error, known in the microbiological field.

[1] = cited from earlier work
R0175 probiotic strain = assay: Microbiological test, CFU count in Petri dish with SAMe; type: cell-based, Bifidobacterium longum; settings: SAMe marketed formulation 500 mg dose, vs probiotic strain only
Experimental: as §1

[2] = tested on: Lactobacillus helveticus R0052; assay: Liquid compatibility method (pH monitoring of strain growth with SAMe); type: cell-based
Experimental: The study was carried out in a first phase with SAMe+Lactobacillus helveticus R0052, not microencapsulated, through a liquid compatibility method. The initial population tested was 15.10^E9 CFU/g units at 500 mg of SAMe. For this evaluation a pHmeter with 8 probes was used, and values were verified every 15 minutes.
The strains are inoculated into a liquid medium suitable for their growth, only under […] conditions (reason why in this way the Bifidobacterium is not tested), and the active substance is inoculated into the sample and not into the control.
From an operational point of view: the vial is filled with the liquid medium (50 ml RCM); the active, which should have been tested directly in its granulated form in the vial, is added, and it is mixed. Then the pH of the medium in the presence of the active is verified, if necessary, the pH is adjusted so that it is comprised between 6.5 and 7. R0052 strain is therefore inoculated (batch U12171600, 500.10^E9 CFU/g) into the vial. The sample is diluted 1/100 with Dilumat to obtain a dilution to 5.10^E9 CFU/ml and finally it is inoculated with 3 ml into the 50 ml RCM vial, obtaining […]. The vial is placed in warm bath, at 37°, and the pH started to be recorded for 18 hours.

In the case of C[S+](CC[C@H](N)C(=O)O)C[C@H]1O[C@@H](n2cnc3c(N)ncnc32)[C@H](O)[C@@H]1O (some centres unmarked) [SAMe, S-adenosyl methionine], the “Modification of CFU count” value (R0052 probiotic strain) is given as “up to 5%”, the “Plasma levels of the unmodified molecule” value ([1]; oral intake) is given as 5-10 % of the administered dose and the Plasma bioavailability ([1]; parenteral (intravenous or intramuscular) route) is given as 90-100 % of the administered dose. For the same compound, the “Modification of CFU count” value (R0175 probiotic strain) was “up to 5%”, the “pH of medium, R0052 in contact with SAMe, final” value ([2]; 500 mg SAMe, RCM medium, 37°, after pH decrease over 18 hours recording) was 4.2 and the “pH of medium, R0052 in contact with SAMe, initial” value ([2]; 500 mg SAMe, RCM medium, 37°, start of 18 hours recording) was 7.2. For the same compound, the “Compatibility of L. helveticus R0052 strain with SAMe” value ([2]; conclusion from acidification) was “compatible” and the “pH of the active (SAMe) alone” value ([2]; without strain, RCM medium, 37°, remains essentially unchanged) was 7-7.5.
